Assay results as given in patent publication US12624038B2, “Molecules and methods related to treatment of uncontrolled cellular proliferation” (ST. JUDE CHILDREN'S RESEARCH HOSPITAL, priority 2019, dated 2026).
Several values for one entry are separate records, joined by “and”; a condition that tells them apart may be missing. Equal values may be shown once. Read-outs that look alike come from different tables or passages of the source.

Assay: In vivo pharmacokinetic (PK) study in NSG mice
Set-up: species or system mouse
Details: for concentration at 24 h: read-out: Clast
Method: Nontumor bearing female NSG mice (n=6), aged 8-12 weeks were dosed i.p. with single dose of compound 7 at 30 mg/kg and 100 mg/kg, respectively. Compound 7 was suspended in 60% PEG400+10% DMSO+[…] and the dosing volume is 5 ml/kg to get the target dose. For each dose, three mice were injected with a single dose and blood samples were collected at 0.5, 1, 2, 4, 8 and 24 hours by retro-orbital eye bleed technique. Blood samples ([…]) were collected and compound 7 concentration levels determined by LC-MS.

[1] = NSG mice, single dose i.p. 30 mg/kg, per mouse, 30 mg/kg
[2] = NSG mice, single dose i.p. 100 mg/kg, per mouse, 100 mg/kg
[3] = female, NSG, mouse, plasma, ip, 30 mg/kg, NSG mice, single dose i.p. 30 mg/kg, per mouse

CCCn1cc(-c2nc(Nc3ccc(C(=O)NCCCCNc4cccc5c4C(=O)N(C4CCC(=O)NC4=O)C5=O)cc3)nc3[nH]ccc23)cn1 (stereo not shown) [Compound 7]
plasma concentration after 24 hours (30 and 100 mg/kg, intraperitoneal dosing): well above the compounds cellular EC50 value | Tlast (NSG mice, single dose i.p. 30 mg/kg, per mouse): 24 h | AUClast [1]: 1759.1 ng·h/mL and 2248.2 ng·h/mL | Clast [1]: 53 ng/mL and 74.3 ng/mL | Cmax [1]: 125.8 ng/mL and 155.3 ng/mL | Tlast (NSG mice, single dose i.p. 100 mg/kg, per mouse): 24 h | AUClast [2]: 1884.7 ng·h/mL and 2179.3 ng·h/mL and 4459 ng·h/mL | Clast [2]: 79.1 ng/mL and 152 ng/mL | Cmax [2]: 181.3 ng/mL and 233.2 ng/mL and 410.5 ng/mL | AUC(0-t) [3]: 1350 ng·h/mL | concentration at 24 h [3]: 45.5 ng/mL | Cmax (female, NSG, mouse, plasma, ip, 30 mg/kg, NSG mice, single dose i.p. 30 mg/kg, per mouse, read-out: Cmax): 115 ng/mL | concentration at 24 h (female, NSG, mouse, plasma, ip, 100 mg/kg, NSG mice, single dose i.p. 100 mg/kg, per mouse): 98.1 ng/mL
